ChEMBL document CHEMBL1132210, “Ligands for the tyrosine kinase p56lck SH2 domain: discovery of potent dipeptide derivatives with monocharged, nonhydrolyzable phosphate replacements” (J Med Chem, 1999)
pKd: −log10 of the molar value. Non-standard residues stand in square brackets, D forms with d. Residues, ends and D or L forms follow the SMILES beside them. Phe(4-CH2COOH) = N[C@@H](Cc1ccc(CC(=O)O)cc1)C(=O)O

molecular target: Tyrosine-protein kinase Lck (Homo sapiens, UniProt P06239); assay: Binding affinity towards p56 Lck tyrosine kinase SH2 domain was determined by biological assay
Sequence (P06239 whole entry, the tested form may be a part): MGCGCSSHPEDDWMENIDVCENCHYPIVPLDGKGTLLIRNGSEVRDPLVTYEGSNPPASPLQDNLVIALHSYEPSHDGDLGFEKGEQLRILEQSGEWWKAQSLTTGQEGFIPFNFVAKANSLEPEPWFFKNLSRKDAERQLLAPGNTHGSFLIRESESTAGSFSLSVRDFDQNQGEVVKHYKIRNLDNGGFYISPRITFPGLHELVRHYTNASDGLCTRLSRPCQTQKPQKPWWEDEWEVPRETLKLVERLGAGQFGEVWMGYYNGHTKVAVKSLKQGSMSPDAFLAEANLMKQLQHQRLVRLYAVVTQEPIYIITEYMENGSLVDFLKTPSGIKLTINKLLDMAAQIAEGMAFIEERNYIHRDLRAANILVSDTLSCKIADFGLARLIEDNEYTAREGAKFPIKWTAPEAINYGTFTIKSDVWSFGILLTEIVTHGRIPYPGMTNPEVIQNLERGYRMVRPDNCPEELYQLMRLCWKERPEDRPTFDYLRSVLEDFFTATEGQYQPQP

Structure (SMILES) | pKd
COc1ccc(CNC(=O)[C@H](CCC(=O)O)NC(=O)[C@H](Cc2ccc(C(F)(F)C(=O)O)cc2)NC(C)=O)cc1 | 3.78
COc1ccc(CNC(=O)[C@H](CCC(=O)O)NC(=O)[C@H](Cc2ccc(CS(=O)(=O)O)cc2)NC(C)=O)cc1 | 4.60
COc1ccc(CNC(=O)[C@H](CCC(=O)O)NC(=O)[C@H](Cc2ccc(C(=O)C(=O)O)cc2)NC(C)=O)cc1 | 4.19
COc1ccc(CNC(=O)[C@H](CCC(=O)O)NC(=O)[C@H](Cc2ccc(CCC(=O)O)cc2)NC(C)=O)cc1 | 3.74
COc1ccc(CNC(=O)[C@H](CCC(=O)O)NC(=O)[C@H](Cc2ccc(NC(=O)C(=O)O)cc2)NC(=O)Cc2ccccc2)cc1 | 4.77
COc1ccc(CNC(=O)[C@H](CCC(=O)O)NC(=O)[C@H](Cc2ccc(C(O)C(=O)O)cc2)NC(C)=O)cc1 (stereo partly specified) | 4.82
COc1ccc(CNC(=O)[C@H](CCC(=O)O)NC(=O)[C@H](Cc2ccc(NC(=O)C(=O)O)cc2)NC(=O)c2ccccc2)cc1 | 4.49
COc1ccc(CNC(=O)[C@H](CCC(=O)O)NC(=O)[C@H](Cc2ccc(CC(=O)O)cc2)NC(C)=O)cc1 | 4.30
COc1ccc(CNC(=O)[C@H](CCC(=O)O)NC(=O)[C@H](Cc2ccc(NC(=O)C(=O)O)cc2)NC(C)=O)cc1 | 4.38
CC[C@H](C)[C@H](NC(=O)[C@H](CCC(=O)O)NC(=O)[C@H](CCC(=O)O)NC(=O)[C@H](Cc1ccc(CC(=O)O)cc1)NC(C)=O)C(=O)O (Ac-[Phe(4-CH2COOH)]EEI-OH) | 4.38

Stronger by pKd, values ahead:

pKd | Structure (SMILES)
5.52 | COc1ccc(CNC(=O)[C@H](CCC(=O)O)NC(=O)[C@H](Cc2ccc(NC(=O)C(=O)O)cc2)NC(=O)Cc2ccc3ccccc3c2)cc1
4.89 | COc1ccc(CNC(=O)[C@H](CCC(=O)O)NC(=O)[C@H](Cc2ccc(NC(=O)C(=O)O)cc2)NC(=O)CCc2ccccc2)cc1
5.70 | COc1ccc(CNC(=O)[C@H](CCC(=O)O)NC(=O)[C@H](Cc2ccc(C(O)C(=O)O)cc2)NC(=O)Cc2cccc3ccccc23)cc1 (stereo partly specified)
5.40 | COc1ccc(CNC(=O)[C@H](CCC(=O)O)NC(=O)[C@H](Cc2ccc(CS(=O)(=O)O)cc2)NC(=O)Cc2cccc3ccccc23)cc1
5.30 | COc1ccc(CNC(=O)[C@H](CCC(=O)O)NC(=O)[C@H](Cc2ccc(CC(=O)O)cc2)NC(=O)Cc2cccc3ccccc23)cc1
7.40 | COc1ccc(CNC(=O)[C@H](CCC(=O)O)NC(=O)[C@H](Cc2ccc(OP(=O)(O)O)cc2)NC(=O)Cc2cccc3ccccc23)cc1
